Reference: US4472404A, “8-Quinolinyl carbamates and their use as urinary tract antimicrobials” (priority 1982, dated 1984)
Values after ≈ are worked out from the molar mass of the structure shown. Where two headings read alike, the source gives them in different places.

Tests used:
Assay type in all cases: cell-based
Aspergillus niger = assay: Agar-plate minimum inhibitory concentration (Example 12); conditions: agar, 72-120 hours, read-out: Minimum Inhibitory Concentration
Description: (§1) The test compound was added to molten agar as a solution (when conveniently soluble in a solvent such as dimethylformamide) or a suspension forming a mixture having a concentration of 0.05 percent (500 ppm). The mixture was stirred and poured into plates to harden. When hardened, the plates were inoculated with various bacteria and fungi. The bacteria-inoculated plates were incubated at 37° C. for 24 hours, while the fungi-inoculated plates were incubated for about 72-120 hours. Following incubation, the plates were examined for growth or inhibition of the respective organisms.
(§2) After the initial readings, compounds showing sufficient activity were re-tested at various concentrations to determine the minimum inhibitory concentration (in ppm) of the compounds of the invention against the various bacteria and fungi tested.

Bacillus subtilis = assay: as above; conditions: agar, 37° C., 24 hours, read-out: Minimum Inhibitory Concentration
Description: as §1, §2

Candida albicans = assay: as above; conditions: agar, 72-120 hours, read-out: Minimum Inhibitory Concentration
Description: as §1, §2

Candida pelliculosa = assay: as above; conditions: Hansenula anomala; Candida pelliculosa; agar, 72-120 hours; read-out: Minimum Inhibitory Concentration
Description: as §1, §2

Ceratocystis ips = assay: as above; conditions: Ceratocystis ips; agar, 72-120 hours; read-out: Minimum Inhibitory Concentration
Description: as §1, §2

Salmonella typhosa = assay: as above; conditions: Salmonella enterica; Salmonella typhosa; agar, 37° C., 24 hours; read-out: Minimum Inhibitory Concentration
Description: as §1, §2

Streptococcus mutans = assay: as above; conditions: agar, 37° C., 24 hours, read-out: Minimum Inhibitory Concentration
Description: as §1, §2

[1] = tested on: Trichophyton mentagrophytes; assay: as above; conditions: agar, 72-120 hours, read-out: Minimum Inhibitory Concentration
Description: as §1, §2

[2] = tested on: Enterobacter aerogenes ATCC 13048; assay: Minimum inhibitory concentration, urinary tract organisms (Example 13); conditions: Klebsiella aerogenes
Description: as §1, §2
(§3) Following a procedure substantially the same as that described in Example 12, the minimum inhibitory concentration for the compounds described herein was determined for various organisms representative of those commonly associated with urinary tract infections.
(§4) The organisms used in this procedure and the abbreviations designated in Table 3 are as follows: […]

[3] = tested on: Escherichia coli ATCC 11229; assay: as above
Description: as §1, §2, §3, §4

[4] = tested on: Escherichia coli ATCC 25922; assay: as above
Description: as §1, §2, §3, §4

[5] = tested on: Escherichia coli ATCC 4157; assay: as above
Description: as §1, §2, §3, §4

[6] = tested on: Escherichia coli ATCC 9723; assay: as above
Description: as §1, §2, §3, §4

[7] = tested on: Klebsiella pneumoniae ATCC 23357; assay: as above
Description: as §1, §2, §3, §4

[8] = tested on: Klebsiella pneumoniae M-1; assay: as above
Description: as §1, §2, §3, §4

[9] = tested on: Klebsiella pneumoniae M-2; assay: as above
Description: as §1, §2, §3, §4

[10] = tested on: Klebsiella pneumoniae M-6; assay: as above
Description: as §1, §2, §3, §4

Proteus mirabilis 470/1 = assay: as above
Description: as §1, §2, §3, §4

[11] = tested on: Pseudomonas aeruginosa ATCC 10145; assay: as above
Description: as §1, §2, §3, §4

[12] = tested on: Pseudomonas aeruginosa ATCC 27853; assay: as above
Description: as §1, §2, §3, §4

[13] = tested on: Pseudomonas aeruginosa ATCC 7700; assay: as above
Description: as §1, §2, §3, §4

[14] = tested on: Pseudomonas aeruginosa PRD-10; assay: as above
Description: as §1, §2, §3, §4

Serratia marcescens M-1 = assay: as above
Description: as §1, §2, §3, §4

[15] = tested on: Staphylococcus aureus ATCC 25923; assay: as above
Description: as §1, §2, §3, §4

[16] = ATCC13048, Ea 13048, read-out: Minimum Inhibitory Concentration
[17] = ATCC11229, Ec 11229, read-out: Minimum Inhibitory Concentration
[18] = ATCC25922, Ec 25922, read-out: Minimum Inhibitory Concentration
[19] = ATCC4157, Ec 4157, read-out: Minimum Inhibitory Concentration
[20] = ATCC9723, Ec 9723, read-out: Minimum Inhibitory Concentration
[21] = ATCC23357, Kp 23357, read-out: Minimum Inhibitory Concentration
[22] = M1, Kp M-1, read-out: Minimum Inhibitory Concentration
[23] = M2, Kp M-2, read-out: Minimum Inhibitory Concentration
[24] = M6, Kp M-6, read-out: Minimum Inhibitory Concentration
[25] = Pm 470/1, read-out: Minimum Inhibitory Concentration
[26] = ATCC10145, Pa 10145, read-out: Minimum Inhibitory Concentration
[27] = ATCC27853, Pa 27853, read-out: Minimum Inhibitory Concentration
[28] = ATCC7700, Pa 7700, read-out: Minimum Inhibitory Concentration
[29] = PRD10, Pa PRD-10, read-out: Minimum Inhibitory Concentration
[30] = M1, Sr M-1, read-out: Minimum Inhibitory Concentration
[31] = ATCC25923, Sa 25923, read-out: Minimum Inhibitory Concentration
[32] = M1, read-out: Minimum Inhibitory Concentration

SMILES | MIC (Aspergillus niger) | MIC (Bacillus subtilis) | MIC (Candida albicans) | MIC (Candida pelliculosa) | MIC (Ceratocystis ips) | MIC [2, 16] | MIC [3, 17] | MIC [4, 18] | MIC [5, 19] | MIC [6, 20] | MIC [7, 21] | MIC [8, 22] | MIC [9, 23] | MIC [10, 24] | MIC (Proteus mirabilis 470/1; [25]) | MIC [12, 27] | MIC [13, 28] | MIC [14, 29] | MIC (Serratia marcescens M-1; [30]) | MIC [15, 31] | further results
CCOC(=O)CNC(=O)Oc1ccc(Cl)c2cccnc12 [Example 1, Ethyl N-(((5-chloro-8-quinolinyl)oxy)-carbonyl)glycinate] | 10 µg/mL (≈ 32.4 µM) | 10 µg/mL (≈ 32.4 µM) | 10 µg/mL (≈ 32.4 µM) | 10 µg/mL (≈ 32.4 µM) | 50 µg/mL (≈ 162 µM) | 50 µg/mL (≈ 162 µM) | 25 µg/mL (≈ 81 µM) | 25 µg/mL (≈ 81 µM) | 25 µg/mL (≈ 81 µM) | 25 µg/mL (≈ 81 µM) | 25 µg/mL (≈ 81 µM) | 50 µg/mL (≈ 162 µM) | 50 µg/mL (≈ 162 µM) | 25 µg/mL (≈ 81 µM) | 50 µg/mL (≈ 162 µM) | 100 µg/mL (≈ 324 µM) | 100 µg/mL (≈ 324 µM) | 100 µg/mL (≈ 324 µM) | 50 µg/mL (≈ 162 µM) | ≤ 5 µg/mL | MIC (Salmonella typhosa): 50 µg/mL (≈ 162 µM); MIC (Streptococcus mutans): 100 µg/mL (≈ 324 µM); MIC [1]: 10 µg/mL (≈ 32.4 µM); MIC [11, 26]: 25 µg/mL (≈ 81 µM)
CCOC(=O)CNC(=O)Oc1c(Br)cc(Br)c2cccnc12 [Example 2, Ethyl N-(((5,7-dibromo-8-quinolinyl)oxy)carbonyl)glycinate] | 50 µg/mL (≈ 116 µM) | 0.5 µg/mL (≈ 1.16 µM) | 50 µg/mL (≈ 116 µM) | 10 µg/mL (≈ 23.1 µM) | 50 µg/mL (≈ 116 µM) | 75 µg/mL (≈ 174 µM) | 25 µg/mL (≈ 57.9 µM) | 25 µg/mL (≈ 57.9 µM) | 25 µg/mL (≈ 57.9 µM) | 25 µg/mL (≈ 57.9 µM) | 250 µg/mL (≈ 579 µM) | 50 µg/mL (≈ 116 µM) | 25 µg/mL (≈ 57.9 µM) | 25 µg/mL (≈ 57.9 µM) | 25 µg/mL (≈ 57.9 µM) | 75 µg/mL (≈ 174 µM) | 250 µg/mL (≈ 579 µM) | 75 µg/mL (≈ 174 µM) | 250 µg/mL (≈ 579 µM) | 25 µg/mL (≈ 57.9 µM) | MIC (Salmonella typhosa): 50 µg/mL (≈ 116 µM); MIC (Streptococcus mutans): 50 µg/mL (≈ 116 µM); MIC [1]: 50 µg/mL (≈ 116 µM); MIC [11, 26]: 25 µg/mL (≈ 57.9 µM)
CCOC(=O)CNC(=O)Oc1cccc2ccc(C)nc12 [Example 3, Ethyl N-(((2-methyl-8-quinolinyl)oxy)carbonyl)glycinate] | 500 µg/mL (≈ 1730 µM) | 10 µg/mL (≈ 34.7 µM) | 500 µg/mL (≈ 1730 µM) | 500 µg/mL (≈ 1730 µM) | 500 µg/mL (≈ 1730 µM) | 250 µg/mL (≈ 867 µM) | 75 µg/mL (≈ 260 µM) | 75 µg/mL (≈ 260 µM) | 100 µg/mL (≈ 347 µM) | 100 µg/mL (≈ 347 µM) | 250 µg/mL (≈ 867 µM) | 250 µg/mL (≈ 867 µM) | 250 µg/mL (≈ 867 µM) | 250 µg/mL (≈ 867 µM) | 250 µg/mL (≈ 867 µM) | > 1000 µg/mL | > 1000 µg/mL | > 1000 µg/mL | 750 µg/mL (≈ 2600 µM) | 25 µg/mL (≈ 86.7 µM) | MIC (Salmonella typhosa): 50 µg/mL (≈ 173 µM); MIC (Streptococcus mutans): 500 µg/mL (≈ 1730 µM); MIC [1]: 500 µg/mL (≈ 1730 µM); MIC [11, 26]: 250 µg/mL (≈ 867 µM)
CCOC(=O)CNC(=O)Oc1c(Cl)cc(Cl)c2cccnc12 [Example 4, Ethyl N-(((5,7-dichloro-8-quinolinyl)oxy)carbonyl)glycinate] | 10 µg/mL (≈ 29.1 µM) | 1 µg/mL (≈ 2.91 µM) | 10 µg/mL (≈ 29.1 µM) | 5 µg/mL (≈ 14.6 µM) | 50 µg/mL (≈ 146 µM) | 25 µg/mL (≈ 72.9 µM) | 10 µg/mL (≈ 29.1 µM) | 10 µg/mL (≈ 29.1 µM) | 10 µg/mL (≈ 29.1 µM) | 10 µg/mL (≈ 29.1 µM) | 25 µg/mL (≈ 72.9 µM) | 25 µg/mL (≈ 72.9 µM) | 25 µg/mL (≈ 72.9 µM) | 25 µg/mL (≈ 72.9 µM) | 10 µg/mL (≈ 29.1 µM) | 50 µg/mL (≈ 146 µM) | 50 µg/mL (≈ 146 µM) | 50 µg/mL (≈ 146 µM) | 25 µg/mL (≈ 72.9 µM) | 10 µg/mL (≈ 29.1 µM) | MIC (Salmonella typhosa): 10 µg/mL (≈ 29.1 µM); MIC (Streptococcus mutans): 500 µg/mL (≈ 1460 µM); MIC [1]: 10 µg/mL (≈ 29.1 µM); MIC [11, 26]: 10 µg/mL (≈ 29.1 µM)
O=C(NCCCl)Oc1ccc(Cl)c2cccnc12 [Example 6, 5-Chloro-8-quinolinyl N-(2-chloroethyl)carbamate] | – | – | – | – | – | 500 µg/mL (≈ 1750 µM) | 75 µg/mL (≈ 263 µM) | 75 µg/mL (≈ 263 µM) | 250 µg/mL (≈ 877 µM) | 50 µg/mL (≈ 175 µM) | 250 µg/mL (≈ 877 µM) | 250 µg/mL (≈ 877 µM) | 500 µg/mL (≈ 1750 µM) | 250 µg/mL (≈ 877 µM) | 250 µg/mL (≈ 877 µM) | 500 µg/mL (≈ 1750 µM) | 500 µg/mL (≈ 1750 µM) | 500 µg/mL (≈ 1750 µM) | 500 µg/mL (≈ 1750 µM) | < 5 µg/mL | –
CNC(=O)Oc1c(Br)cc(Br)c2cccnc12 [Example 11, 5,7-Dibromo-8-quinolinyl N-methylcarbamate] | – | – | – | – | – | – | – | – | – | – | – | – | – | – | – | – | – | – | – | – | MIC ([2]; ATCC13048, read-out: Minimum Inhibitory Concentration): 25 µg/mL (≈ 69.4 µM); MIC ([3]; ATCC11229, read-out: Minimum Inhibitory Concentration): 25 µg/mL (≈ 69.4 µM); MIC ([4]; ATCC25922, read-out: Minimum Inhibitory Concentration): 25 µg/mL (≈ 69.4 µM); MIC ([5]; ATCC4157, read-out: Minimum Inhibitory Concentration): 25 µg/mL (≈ 69.4 µM); MIC ([6]; ATCC9723, read-out: Minimum Inhibitory Concentration): 25 µg/mL (≈ 69.4 µM); MIC ([7]; ATCC23357, read-out: Minimum Inhibitory Concentration): 25 µg/mL (≈ 69.4 µM); MIC [8, 32]: 25 µg/mL (≈ 69.4 µM); MIC ([9]; M2, read-out: Minimum Inhibitory Concentration): 25 µg/mL (≈ 69.4 µM); MIC ([10]; M6, read-out: Minimum Inhibitory Concentration): 25 µg/mL (≈ 69.4 µM); MIC (Proteus mirabilis 470/1; 470/1, read-out: Minimum Inhibitory Concentration): 25 µg/mL (≈ 69.4 µM); MIC ([11]; ATCC10145, read-out: Minimum Inhibitory Concentration): 25 µg/mL (≈ 69.4 µM); MIC ([12]; ATCC27853, read-out: Minimum Inhibitory Concentration): 100 µg/mL (≈ 278 µM); MIC ([13]; ATCC7700, read-out: Minimum Inhibitory Concentration): 100 µg/mL (≈ 278 µM); MIC ([14]; PRD10, read-out: Minimum Inhibitory Concentration): 100 µg/mL (≈ 278 µM); MIC (Serratia marcescens M-1; [32]): 50 µg/mL (≈ 139 µM); MIC ([15]; ATCC25923, read-out: Minimum Inhibitory Concentration): 25 µg/mL (≈ 69.4 µM)
